According to PubChem BioAssay (NCI):
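Five concentrations, 48 hours, 96-well plates. Here, GI50 denotes the concentration required for 50% inhibition of growth. TGI denotes the concentration required for complete inhibition of growth.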

Experiments:
Test in all cases: inhibition of tumour cell growth, NCI panel, 48 h
[1] = tested on: MALME-3M melanoma
[2] = tested on: SK-OV-3 ovarian
[3] = tested on: OVCAR-5 ovarian
[4] = tested on: KM12 colon
[5] = tested on: SR leukemia
[6] = tested on: NCI-H460 lung
[7] = tested on: OVCAR-3 ovarian
[8] = tested on: MCF7 breast
[9] = tested on: MDA-MB-468 breast
[10] = tested on: HOP-62 NSCLC
[11] = tested on: EKVX NSCLC
[12] = tested on: T-47D breast
[13] = tested on: SN12C renal
[14] = tested on: LOX IMVI melanoma
[15] = tested on: PC-3 prostate
[16] = tested on: SF-268 CNS
[17] = tested on: UACC-62 melanoma
[18] = tested on: U251 CNS
[19] = tested on: A549 NSCLC
[20] = tested on: RPMI-8226 leukemia
[21] = tested on: SNB-75 CNS
[22] = tested on: NCI/ADR-RES ovarian
[23] = tested on: NCI-H522 lung
[24] = tested on: ACHN renal
[25] = tested on: CCRF-CEM leukemia
[26] = tested on: HL-60(TB) leukemia
[27] = tested on: SK-MEL-5 melanoma
[28] = tested on: A498 renal
[29] = tested on: IGROV1 ovarian
[30] = tested on: BT-549 breast

Compound: Cn1cc(-c2cc(N)n3nc(-c4c[nH]c5ccccc45)cc3n2)c2ccccc21
- GI50 [1]: 1.56 µM
- TGI [1]: 2.9 µM
- GI50 [2]: 11.8 µM
- TGI [2]: 25.6 µM
- GI50 [3]: 2.05 µM
- TGI [3]: 4.64 µM
- GI50 [4]: 1.94 µM
- TGI [4]: 3.99 µM
- GI50 [5]: 2.01 µM
- TGI [5]: 39 µM
- GI50 [6]: 1.95 µM
- TGI [6]: 3.83 µM
- GI50 [7]: 2.1 µM
- TGI [7]: 4.59 µM
- GI50 [8]: 1.81 µM
- TGI [8]: 3.78 µM
- GI50 [9]: 1.63 µM
- TGI [9]: 3.11 µM
- GI50 [10]: 3.09 µM
- TGI [10]: 10.5 µM
- GI50 [11]: 2.48 µM
- TGI [11]: 7.15 µM
- GI50 [12]: 2.02 µM
- TGI [12]: 4.58 µM
- GI50 [13]: 3.47 µM
- TGI [13]: 12.4 µM
- GI50 [14]: 1.81 µM
- TGI [14]: 3.25 µM
- GI50 [15]: 3.38 µM
- TGI [15]: 14.4 µM
- GI50 [16]: 4.25 µM
- TGI [16]: 20.6 µM
- GI50 [17]: 1.74 µM
- TGI [17]: 3.17 µM
- GI50 [18]: 2.04 µM
- TGI [18]: 4.04 µM
- GI50 [19]: 3.01 µM
- TGI [19]: 12 µM
- GI50 [20]: 2.51 µM
- TGI [20]: 6.95 µM
- GI50 [21]: 7.65 µM
- TGI [21]: 21.3 µM
- GI50 [22]: 2.65 µM
- TGI [22]: 7.75 µM
- GI50 [23]: 1.69 µM
- TGI [23]: 3.33 µM
- GI50 [24]: 2.22 µM
- TGI [24]: 4.85 µM
- GI50 [25]: 2.77 µM
- TGI [25]: 24 µM
- GI50 [26]: 1.99 µM
- TGI [26]: 5.08 µM
- GI50 [27]: 1.77 µM
- TGI [27]: 3.43 µM
- GI50 [28]: 7.63 µM
- TGI [28]: 20.8 µM
- GI50 [29]: 2.64 µM
- TGI [29]: 6.84 µM
- GI50 [30]: 14.8 µM
